Legend:
[1] = target: T1, CRP (Escherichia coli, UniProt P0ACJ8); assay: EMSA in vitro DNA binding by CRP; format: biochemical, E. coli; settings: 1.3 mM compound
T1 construct: made in house; host or cells: E. coli
Description: (§1) All proteins for this study were expressed in E. coli. Untagged CRP was purified by Ni^2+-affinity chromatography as described. Lad protein was purified by ammonium sulfate precipitation and phosphocellulose column chromatography as described. RhaS-GB1^201b and GB1^b-RhaR were purified by Ni^2+-affinity chromatography. Briefly, plasmids derived from pET21 and expressing RhaS-GB1^201b and GB1^b-RhaR were transformed into competent cells of strains Acella™ (MoBiTec, Gottingen, Germany) or ArcticExpress(DE3) (Agilent Technologies, Santa Clara Calif.), respectively. The cells were grown in 1 liter TY plus ampicillin and rhamnose. Gentamycin was also added for GB1^b-RhaR. The cells were grown to OD600 of 0.5, transferred to a 15° C. shaker, 0.1 mM IPTG was added, and then incubated overnight. Cells were harvested by centrifugation and then resuspended in 30 mL of cold binding buffer (20 mM Tris, 500 mM NaCl, 5 mM imidazole, pH 7.9) plus L-rhamnose. […]
(§2) IRD700- and DY682-labeled oligos were from Eurofins MWG Operon. […] EMSA gels were imaged using an Odyssey infrared imager (LI-COR, Lincoln, Nebr.), and quantified using the Odyssey software, version 3.0.30. […] Inhibition values were calculated and graphs were drawn as for in vivo dose-response experiments.

[2] = target: T2, LacI (Escherichia coli, UniProt P03023); assay: EMSA in vitro DNA binding by LacI; format: biochemical, E. coli; settings: highest concentrations (dilutions starting at 650 μM)
T2 construct: made in house; host or cells: E. coli
T2 sequence (P03023 whole entry): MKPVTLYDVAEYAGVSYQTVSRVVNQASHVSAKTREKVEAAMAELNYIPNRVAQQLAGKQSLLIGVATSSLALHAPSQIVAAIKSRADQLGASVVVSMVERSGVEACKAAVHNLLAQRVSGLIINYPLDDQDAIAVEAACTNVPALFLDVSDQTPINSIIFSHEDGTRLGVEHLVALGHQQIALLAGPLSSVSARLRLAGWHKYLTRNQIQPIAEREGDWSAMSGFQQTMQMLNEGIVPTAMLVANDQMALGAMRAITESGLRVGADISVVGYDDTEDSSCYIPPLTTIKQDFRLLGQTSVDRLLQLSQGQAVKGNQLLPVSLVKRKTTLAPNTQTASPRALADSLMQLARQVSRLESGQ
Description: as §1, §2

[3] = test system: rrsA; assay: Shigella gene expression qRT-PCR, internal control rrsA; format: cell-based, S. flexneri; settings: for Average ΔΔCt / Ct / RQ (2^−ΔΔCt) / ΔΔCt^1 (normalized to gapA): rrsA, example data
Procedure: Real-time quantitative reverse transcription PCR (qRT-PCR) was performed to test the effects of SE-1 on the expression of the VirF regulated genes virB, icsA, icsB and ipaB. The gapA and rrsA transcripts were used as internal controls. These are constitutively expressed Shigella genes commonly used to normalize mRNA levels. S. flexneri strain SME4331, which carries a null mutation in ipgD (ipgD), was grown at 30° C. overnight in TSB with ampicillin, diluted into the same medium to an OD600 of ˜0.1, and 1 ml aliquots further grown at 30° C. (DMSO only) or at 37° C. (SE-1 at 20 or 40 μM, or DMSO only, all 0.3% DMSO). Cells were grown to an OD600 of 1.0 (˜2.5 h) and RNA was isolated using an RNeasy MiniElute Cleanup Kit (Qiagen, Germantown, Md.), with DNA contamination eliminated using a Turbo DNase Kit (Ambion, Austin, Tex.). Complementary DNA (cDNA) was synthesized by random priming using a cDNA Reverse Transcription Kit (Applied Biosystems, Foster City, Calif.). Primers were tested for PCR specificity using genomic DNA template to ensure a single amplicon of the expected size for each primer pair, and validated using 5-fold dilutions of cDNA (2000 to 0.0256 ng) to ensure a linear plot of cycle threshold (Ct) versus cDNA concentration. Validated primer sets were used to test mRNA profiles in reactions that contained 10 ng of cDNA, 10 μl of SYBR green master mix (Applied Biosystems), specific primers (0.5 μM each) and water to a final volume of 20 μl, using a Step One Plus Real-Time PCR System (Applied Biosystems). The data was analyzed using the 2^−ΔΔCt method, and also by Applied Biosystems real-time analysis software. […] In brief, ΔΔCt values [ΔΔCt=(Ct,Target−Ct,Internal Control)SE-1−(Ct,Target−Ct,Internal Control)no SE-1] were separately obtained for each sample relative to two internal controls, gapA and rrsA. The ΔΔCt values relative to the two internal controls for each sample were averaged and then used to calculate the relative expression levels (2^−ΔΔCt). As a control, we also normalized each internal control to the other internal control. Control reactions used templates generated without reverse transcriptase to ensure low genomic DNA contamination. To ensure that products were not likely to be due to primer dimer artifacts, additional control samples were performed in which reaction mixtures contained primers alone (no template).

[4] = target: VirF (Shigella flexneri, UniProt P0A2T1); assay: % Inhibition at 82.5 μM, VirF; format: cell-based; settings: 82.5 μM
Sequence of VirF (P0A2T1 whole entry): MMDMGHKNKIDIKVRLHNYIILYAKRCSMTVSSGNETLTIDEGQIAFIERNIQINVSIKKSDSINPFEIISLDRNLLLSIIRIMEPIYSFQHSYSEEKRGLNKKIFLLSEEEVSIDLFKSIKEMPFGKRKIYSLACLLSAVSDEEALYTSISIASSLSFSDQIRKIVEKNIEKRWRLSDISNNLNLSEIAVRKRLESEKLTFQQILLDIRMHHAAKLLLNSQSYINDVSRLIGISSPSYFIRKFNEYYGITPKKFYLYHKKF

T1 sequence (P0ACJ8 2-210): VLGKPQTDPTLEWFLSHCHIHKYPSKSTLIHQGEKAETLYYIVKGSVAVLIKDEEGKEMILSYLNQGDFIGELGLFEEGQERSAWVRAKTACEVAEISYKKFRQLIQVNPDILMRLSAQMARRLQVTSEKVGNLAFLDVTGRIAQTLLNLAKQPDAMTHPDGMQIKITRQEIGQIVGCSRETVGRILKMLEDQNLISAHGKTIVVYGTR

In the case of `CCCCN1C=C(c2ccc3ccccc3n2)C(C[N+](=O)[O-])c2ccccc21` (stereo not drawn) [Compound 1, 1-butyl-4-(nitromethyl)-3-quinolin-2-yl-4H-quinoline], the “CRP DNA binding retained” value [1] is reported as “approximately 94%”, the “LacI DNA binding retained” value [2] is reported as “approximately 70%” and the “expression of control gene rrsA” value ([3]; 40 μM SE-1, normalized to gapA) is reported as “no decrease”. The “Average ΔΔCt” value ([3]; SE-1 20 μM) was −1.0, the Ct ([3]; SE-1 20 μM) was 18.55 and the “RQ (2^−ΔΔCt)” value ([3]; SE-1 20 μM) was 2. The “ΔΔCt^1 (normalized to gapA)” value ([3]; SE-1 20 μM) was −1.0, the “Average ΔΔCt” value ([3]; SE-1 40 μM) was 0.69 and the Ct ([3]; SE-1 40 μM) was 18.29. For the same compound, the “RQ (2^−ΔΔCt)” value ([3]; SE-1 40 μM) was 1.62, the “ΔΔCt^1 (normalized to gapA)” value ([3]; SE-1 40 μM) was 0.69 and the “% Inhibition at 82.5 μM VirF” value [4] was 100%.
